We go through two compounds from US5281583A, “LPS-containing analgesics and veterinary analgesics” (priority 1990, dated 1994).

One assay deals with C3H/H male mice. Nature of the assay: acetic acid-writhing method, intravenous, time course in comparison with phenylbutazone. The settings on record: for Writhing frequency / writhing inhibition: Group B, i.v. 1 mg/mouse. Type of assay: in vivo, mouse. An excerpt: The analgesic effects of the LPSs of the present invention have been confirmed by an experiment using animals according to the acetic acid-writhing method described on page 415 of "Inflammation and anti-inflammatory therapy" issued in 1982 by Ishiyaku Shuppan Co. in Japan, one of the established methods for the determination of the effects of non-narcotic analgesics. The experiment included comparison with the prior art phenylbutazone which is often used to eliminate inflammatory pain.
2) The following preparations were given to six-membered groups of 8 week old C3H/H male mice (body weight: 20-25 g).
Group A: an intravenous solution prepared by dissolving 1 μg by weight/mouse of LPS (wheat LPS prepared in Reference Example 1) in 0.2 ml of physiological saline.
Group B: an intravenous solution prepared by dissolving 1 mg/mouse of the prior art analgesic phenylbutazone in 0.2 ml of 1% aqueous CMC solution.
Group C: 0.2 ml of physiological saline.
0.5 ml of 1% acetic acid was administered intraperitoneally 0.5, 1.5, 3, 8 or 18 hours after the administration of the preparations, and the writhing frequency of the respective mice was counted. The results are shown in Table 9 as an average of six mice in the respective groups. In the table, the writhing inhibition (%) was calculated as follows: [formula]
In the above equation, the writhing frequency in the group C is that obtained in the case where acetic acid was given 30 minutes after the administration of physiological saline, and the counting was made for 30 minutes. The data of the group A was 39, whereas that of the group B was 35.

Assay [1] relates to macrophage peritoneal cells of mice. Put plainly: ability of LPS to activate in vitro TNF productivity of macrophage (TNF activity by cytotoxicity to L929 cells). It counts as cell-based, mouse. As for the experimental part:
In order to determine the ability of LPS to activate the in vitro TNF productivity of macrophage, a recombinant mouse IFN-γ is added to peritoneal macrophage cells of mouse as the primer followed by addition of the LPS as the trigger thereto, and then the TNF activity is determined.
The TNF activity is determined, as follows, on the basis of the cytotoxicity to L929 cells (Proci. Natl. Acad. Sci. U.S.A., 72, pp. 3666-3670, […]). L-929 cells are cultured in Eagles' Minimum Essential Medium (hereunder referred to only as MEM) with 5% fetal calf serum (hereunder referred to only as FCS) added thereto until 100 μl of the medium contains 8×10^4 cells, and then the cells are grown in a flat-bottomed plate having 96 wells.
The growth conditions are 37° C. in the presence of 5% CO2, and under a humidity of 100% for 2 hours, and the procedures may be the same as for the conventional cell culture. Then actinomycin D is added to the medium to a final concentration of 1 μg/ml, and the volume of the culture solution is adjusted to 150 μl. Immediately thereafter 50 μl of the sample diluted appropriately with MEM medium is added to the culture solution. Here, ED50 may be determined by adjusting the dilution appropriately. The L-929 cells having a final volume of 200 μl are cultured for an additional 18 hours under the same conditions as described above.
In order to determine the cell necrosis activity, first the whole medium is removed followed by addition of a 1% methyl alcoholic solution containing 0.1% crystal violet for fixation staining. Crystal violet stains all the eukaryotic cells, but the dead cells are removed off from the bottom of the flask only by washing after the staining; so the cell necrosis activity may be determined directly. The staining degree is measured on the basis of adsorption at OD590 nm, and is compared with that of a control to determine the cell necrosis activity. This activity is defined as follows.
The dilution of the sample which allows 50% of the L-929 cells to survive (N) is determined. Rabbit TNS is used as the control, and its activity n (units/ml) is determined using 2.4×10^6 units/mg/ml of TNF-α. The dilution which provides ED50 of rabbit TNS is determined.
The activity of the sample (units/ml) is calculated by the equation N/C×n.
Two hundred μl (2×10^5 cells)/well of macrophage peritoneal cells of mice (each group comprised three mice of 9 weeks old and having an average weight of 29 g) were placed in a flat-bottomed plate having 96 wells, and 10 μl of recombinant IFN-γ (100 units/ml) as a primer was placed in the respective wells. Separately, extracts prepared by extraction of various LPS sources with hot water at 65° C. for 5 hrs. were diluted to various degrees, and then were administered as triggers to the cells three hours after the administration of the primer in a proportion of 10 μl/well. After two hour culture, the culture solutions were subjected to centrifugation at 3,000 G for 20 min. A pipette was used to collect 130 μl of the supernatant from the respective wells, and the TNF activity was determined on the basis of the toxicity to L929 cells. The limulus test-positive LPS content was determined using Toxicolor System® commercially available from Sei-Kagaku Kogyo Co. in Japan.
The values were plotted to prepare a graph wherein the quantity of the TNF produced (units/ml of culture solution) was plotted along the axis of ordinate, whereas the corresponding limulus test-positive LPS content (ng/ml of culture solution) was plotted along the axis of abscissa (on a logarithmic scale), and a sigmoid curve was prepared on the basis of the plotted points. The macrophage activation ability was estimated to be 0% in the case where it corresponded to the quantity of TNF produced by macrophage with no trigger added thereto, and 100% was assigned to the macrophage activation ability which provided the maximal constant of TNF. […]

The mark [2] stands for this setting: LPS 2 ng/ml of culture solution.
The mark [3] stands for this setting: LPS 24 ng/ml of culture solution.
The mark [4] stands for this setting: LPS 240 ng/ml of culture solution.
[5] abbreviates: LPS 2400 ng/ml of culture solution.

Regarding `CCCCC1C(=O)N(c2ccccc2)N(c2ccccc2)C1=O` [phenylbutazone], the “significance of analgesic effects (double-sided t test)” value in the assay with C3H/H male mice (3 hours after administration) is reported as “no significant analgesic effects”. Moreover, the Writhing frequency with C3H/H male mice (time lapsed 0.5 h) is reported as 18; in the assay on C3H/H male mice (time lapsed 1.5 h) it was 7; in the assay on C3H/H male mice (time lapsed 3 h), 25. Further, the writhing inhibition in the assay on C3H/H male mice (time lapsed 0.5 h) is 49%; in the assay with C3H/H male mice (time lapsed 1.5 h), 80%; in the assay with C3H/H male mice (time lapsed 3 h) it was 29%.

On to Lipid A, for which the TNF produced is 4.7 units/ml of culture solution in assay [1] (setting [2]), 9.4 units/ml of culture solution in assay [1] (setting [3]), 11.1 units/ml of culture solution in assay [1] (setting [4]) and 11.5 units/ml of culture solution in assay [1] (setting [5]). Also, the macrophage activation ability was found to be 37% in assay [1] (setting [2]), 80% in assay [1] (setting [3]), 96% in assay [1] (setting [4]) and 100% in assay [1] (setting [5]).
